Here are results for 27 compounds from patent US7956074B2, “Aryl-isoxazolo-4-yl-oxadiazole derivatives” (Hoffman-La Roche Inc., priority 2005, dated 2011).

Broadly, the Ki is a measure of affinity in units of concentration, obtained from inhibition or displacement.

For this experiment, the target named is T1, GABA A receptor α5β3γ2 (Homo sapiens, UniProt P18507+P31644).
T1 construct: expressed in transfected cells; host or cells: HEK293 cells, transiently transfected; membranes prepared
Kind of experiment: [3H]flumazenil competition binding, human GABA A α5β3γ2. Conditions: competition for [3H]flumazenil (0.5 nM) binding, HEK293 cells expressing human (transiently transfected) α5β3γ2; means of two determinations; read-out: Ki[nM] hα5. How it is done: Membrane Preparation and Binding Assay
The affinity of compounds at GABA A receptor subtypes was measured by competition for [3H]flumazenil (85 Ci/mmol; Roche) binding to HEK293 cells expressing rat (stably transfected) or human (transiently transfected) receptors of composition
Cell pellets were suspended in Krebs-tris buffer (4.8 mM KCl, 1.2 mM CaCl2, 1.2 mM MgCl2, 120 mM NaCl, 15 mM Tris; pH 7.5; binding assay buffer), homogenized by polytron for ca. 20 sec on ice and centrifuged for 60 min at 4° C. (50000 g; Sorvall, rotor: SM24=20000 rpm). The cell pellets were resuspended in Krebs-tris buffer and homogenized by polytron for ca. 15 sec on ice. Protein was measured (Bradford method, Bio-Rad) and aliquots of 1 mL were prepared and stored at −80° C.
Assays were incubated to equilibrium for 1 hour at 4° C. and harvested onto GF/C uni-filters (Packard) by filtration using a Packard harvester and washing with ice-cold wash buffer (50 mM Tris; pH 7.5). After drying, filter-retained radioactivity was detected by liquid scintillation counting. Ki values were calculated using Excel-Fit (Microsoft) and are the means of two determinations.

With `Cc1onc(-c2ccccc2)c1-c1nnc(-c2ccc(NCCO)nc2)o1` [Example 137, 2-{5-[5-(5-Methyl-3-phenyl-isoxazol-4-yl)-[1,3,4]oxadiazol-2-yl]-pyridin-2-ylamino}-ethanol], the inhibitory constant (Ki) was determined as 24.5 nM.
In the case of `COc1cc(NCCN2CCCC2)c(F)cc1-c1nnc(-c2c(-c3ccccc3)noc2C)o1` [Example 132, {2-Fluoro-5-methoxy-4-[5-(5-methyl-3-phenyl-isoxazol-4-yl)-[1,3,4]oxadiazol-2-yl]-phenyl}-(2-pyrrolidin-1-yl-ethyl)-amine], the Ki turned out to be 8.6 nM.
`COc1cc(N2CCC(O)CC2)ccc1-c1nnc(-c2c(-c3ccccc3)noc2C)o1` [Example 29, 1-{3-Methoxy-4-[5-(5-methyl-3-phenyl-isoxazol-4-yl)-[1,3,4]oxadiazol-2-yl]-phenyl}-piperidin-4-ol]: the Ki came to 6 nM.
For `COC(=O)c1ccc(-c2nnc(-c3c(-c4ccccc4)noc3C)o2)cc1` [Example 71, 4-[5-(5-Methyl-3-phenyl-isoxazol-4-yl)-[1,3,4]oxadiazol-2-yl]-benzoic acid methyl ester] the value was 289 nM; for `COc1cc(N2CCOCC2)ccc1-c1nnc(-c2c(-c3ccccc3)noc2-c2ccccc2)o1` [Example 96, 4-{4-[5-(3,5-Diphenyl-isoxazol-4-yl)-[1,3,4]oxadiazol-2-yl]-3-methoxy-phenyl}-morpholine], 15.3 nM; for `COc1cc(N2CCS(=O)(=O)CC2)ccc1-c1nnc(-c2c(-c3ccccc3)noc2C)o1` [Example 28, 4-{3-Methoxy-4-[5-(5-methyl-3-phenyl-isoxazol-4-yl)-[1,3,4]oxadiazol-2-yl]-phenyl}-thiomorpholine 1,1-dioxide], 3.2 nM.
In the case of `COc1ccc(-c2nnc(-c3c(-c4ccccc4)noc3C)o2)c(Cl)n1` [Example 99, 2-Chloro-6-methoxy-3-[5-(5-methyl-3-phenyl-isoxazol-4-yl)-[1,3,4]oxadiazol-2-yl]-pyridine], the inhibition constant Ki was 95.8 nM.
Take `COc1cc(-n2ccnn2)ccc1-c1nnc(-c2c(-c3ccccc3)noc2C)o1` [Example 86, 2-(2-Methoxy-4-[1,2,3]triazol-1-yl-phenyl)-5-(5-methyl-3-phenyl-isoxazol-4-yl)-[1,3,4]oxadiazole]: the Ki is 4.8 nM.
To `Cc1onc(-c2ccccc2)c1-c1nnc(-c2ccc(N3C[C@@H](C)O[C@@H](C)C3)cc2)o1` [Example 41, rac-(2S,6R)-2,6-Dimethyl-4-{4-[5-(5-methyl-3-phenyl-isoxazol-4-yl)-[1,3,4]oxadiazol-2-yl]-phenyl}-morpholine] belongs 32.5 nM.
For `COc1cc(NS(=O)(=O)C(C)C)ccc1-c1nnc(-c2c(-c3ccccc3)noc2C)o1` [Example 63, Propane-2-sulfonic acid {3-methoxy-4-[5-(5-methyl-3-phenyl-isoxazol-4-yl)-[1,3,4]oxadiazol-2-yl]-phenyl}-amide] the value was 42.8 nM.
For `Cc1onc(-c2ccccc2)c1-c1nnc(-c2ccc(S(C)(=O)=O)cc2)o1` [Example 30, 2-(4-Methanesulfonyl-phenyl)-5-(5-methyl-3-phenyl-isoxazol-4-yl)-[1,3,4]oxadiazole] the value was 226 nM; for `Cc1onc(-c2ccccc2)c1-c1nnc(-c2ccc3nn[nH]c3c2)o1` [Example 25, 6-[5-(5-Methyl-3-phenyl-isoxazol-4-yl)-[1,3,4]oxadiazol-2-yl]-1H-benzotriazole], 30.9 nM; for `Cc1onc(-c2ccccc2)c1-c1nnc(-c2cc(F)c(N3CCSCC3)cc2F)o1` [Example 119, 4-{2,5-Difluoro-4-[5-(5-methyl-3-phenyl-isoxazol-4-yl)-[1,3,4]oxadiazol-2-yl]-phenyl}-thiomorpholine], 24.3 nM.
On to `Cc1onc(-c2ccccc2)c1-c1nnc(-c2ccc(C(=O)N3CCOCC3)cc2)o1` [Example 80, {4-[5-(5-Methyl-3-phenyl-isoxazol-4-yl)-[1,3,4]oxadiazol-2-yl]-phenyl}-morpholin-4-yl-methanone], for which the Ki stood at 469 nM.
For the compound `Cc1onc(-c2ccccc2)c1-c1nnc(-c2ccsc2)o1` [Example 122, 2-(5-Methyl-3-phenyl-isoxazol-4-yl)-5-thiophen-3-yl-[1,3,4]oxadiazole], the inhibition constant (Ki) amounted to 139 nM.
To `Cc1onc(-c2ccccc2)c1-c1nnc(-c2cccc3cccnc23)o1` [Example 7, 8-[5-(5-Methyl-3-phenyl-isoxazol-4-yl)-[1,3,4]oxadiazol-2-yl]-quinoline] belongs 40.6 nM; to `COc1cc(C(F)(F)F)ccc1-c1nnc(-c2c(-c3ccccc3)noc2C)o1` [Example 49, 2-(2-Methoxy-4-trifluoromethyl-phenyl)-5-(5-methyl-3-phenyl-isoxazol-4-yl)-[1,3,4]oxadiazole], 39.7 nM.
To `Cc1onc(-c2ccccc2)c1-c1nnc(-c2ccc(N3CCS(=O)(=O)CC3)nc2)o1` [Example 141, 4-{5-[5-(5-Methyl-3-phenyl-isoxazol-4-yl)-[1,3,4]oxadiazol-2-yl]-pyridin-2-yl}-thiomorpholine 1,1-dioxide] belongs 17.7 nM; to `Cc1onc(-c2ccccc2)c1-c1nnc(-c2ccc3[nH]c(=O)[nH]c3c2)o1` [Example 34, 5-[5-(5-Methyl-3-phenyl-isoxazol-4-yl)-[1,3,4]oxadiazol-2-yl]-1,3-dihydro-benzoimidazol-2-one], 7.9 nM.
Regarding `COc1cc(N(C)C)ccc1-c1nnc(-c2c(-c3ccccc3)noc2C)o1` [Example 72, {3-Methoxy-4-[5-(5-methyl-3-phenyl-isoxazol-4-yl)-[1,3,4]oxadiazol-2-yl]-phenyl}-dimethyl-amine], the Ki came to 12 nM.
Regarding “2-(4,5-Difluoro-2-methoxy-phenyl)-5-(5-methyl-3-phenyl-isoxazol-4-yl)-[1,3,4]oxadiazole [Example 87]”, the Ki worked out at 43.8 nM.
For `CNCc1onc(-c2ccccc2)c1-c1nnc(-c2ccc(F)cc2OC)o1` [Example 88, {4-[5-(4-Fluoro-2-methoxy-phenyl)-[1,3,4]oxadiazol-2-yl]-3-phenyl-isoxazol-5-ylmethyl}-methyl-amine] the value was 339 nM; for `COc1cc(-n2nccn2)ccc1-c1nnc(-c2c(-c3ccccc3)noc2C)o1` [Example 85, 2-(2-Methoxy-4-[1,2,3]triazol-2-yl-phenyl)-5-(5-methyl-3-phenyl-isoxazol-4-yl)-[1,3,4]oxadiazole], 20.6 nM.
To `CCc1onc(-c2ccccc2)c1-c1nnc(-c2ccc(F)cc2OC)o1` [Example 60, 2-(5-Ethyl-3-phenyl-isoxazol-4-yl)-5-(4-fluoro-2-methoxy-phenyl)-[1,3,4]oxadiazole] belongs 96 nM; to `Cc1onc(-c2ccccc2)c1-c1nnc(-c2ccnc(N3CCOCC3)c2)o1` [Example 55, 4-{4-[5-(5-Methyl-3-phenyl-isoxazol-4-yl)-[1,3,4]oxadiazol-2-yl]-pyridin-2-yl}-morpholine], 324 nM.
As to `Cc1onc(-c2ccccc2)c1-c1nnc(-c2ccccc2OC(F)F)o1` [Example 42, 2-(2-Difluoromethoxy-phenyl)-5-(5-methyl-3-phenyl-isoxazol-4-yl)-[1,3,4]oxadiazole], the Ki is 141 nM.
To `Cc1onc(-c2ccccc2)c1-c1nnc(-c2ccc(OC(F)F)cc2)o1` [Example 52, 2-(4-Difluoromethoxy-phenyl)-5-(5-methyl-3-phenyl-isoxazol-4-yl)-[1,3,4]oxadiazole] belongs 58.9 nM.
